Data from US9895422B2, “Combination of dopamine agonists plus first phase insulin secretagogues for the treatment of metabolic disorders” (VeroScience LLC, priority 2009, dated 2018).
Counter-ions that a name gives are not always drawn.

Tests used:
[1] = system: Male Syrian hamsters known to develop insulin resistance and glucose intolerance; assay: Glucose tolerance test (GTT), similarly designed experiment with insulin as first phase insulin secretagogue; type: in vivo, Syrian hamster
Method: Male Syrian hamsters known to develop insulin resistance and glucose intolerance were purchased at 4 weeks of age and kept on rodent diet for 10 weeks at 72 degrees F. and a 14 hr:10 hr daily light:dark cycle. When animals were 14 weeks of age on this daily photoperiod (known to be insulin resistant and glucose intolerant under these conditions), bromocriptine mesylate was administered intraperitoneally (IP) for 2 weeks at 4 mg/kg per hamster 13 hours after light onset to half of the animals, while the other half received vehicle injections for 2 weeks.
After 2 weeks of treatment both Bromocriptine and vehicle groups were divided into two groups for a total of 4 groups: 1. Vehicle for 2 weeks and Vehicle at initiation of a glucose tolerance test (GTT); 2. […] Bromocriptine for 2 weeks and Vehicle at GTT; 4.
Blood was drawn from the jugular vein and blood glucose level was measured every 30 minutes for 2 hours after the glucose load administration.

[2] = system: Male Syrian hamsters known to develop insulin resistance and glucose intolerance; assay: Glucose tolerance test (GTT) after 2 weeks of bromocriptine, with or without Exendin-4 at the GTT; type: in vivo, Syrian hamster; conditions: bromocriptine mesylate 4 mg/kg IP for 2 weeks, vehicle at GTT; 3 g/kg glucose; P<0.09

`CC(C)C[C@H]1C(=O)N2CCC[C@H]2[C@]2(O)O[C@](NC(=O)[C@@H]3C=C4c5cccc6[nH]c(Br)c(c56)C[C@H]4N(C)C3)(C(C)C)C(=O)N12` [Bromocriptine, bromocriptine mesylate] was tested. Which “reduction of glucose AUC over two hours after glucose administration” value ([1]; bromocriptine for 2 weeks, insulin experiment, P=0.23) did it give?
Its value is 28%.

And the “reduction of blood glucose Area Under Curve (AUC) during the GTT over two hours after glucose administration” value [2]?
The value was 21%.

insulin was tested. Which “reduction of glucose AUC over two hours after glucose administration” value ([1]; insulin 240 ng/kg IP immediately prior to glucose administration, P=0.64) did it give?
Its value is “not significantly reduced”.
